Where two headings read alike, the source gives them in different places.
How the values were obtained:
[1] = Metabolic stability in rat microsomes; type: in vitro ADME; settings: 250 nM compound, NADPH, 37 °C; for microsomal CLint at 1 h, 0.25 µM / half-life at 1 h, 0.25 µM: rat, pooled rat microsomes, pH 7.4; for half-life at 1 h, 0.25 µM: read-out: metabolic stability in rat microsomes T1/2
Procedure: (§1) Pooled human and rat microsomes were prepared and stored at −80 °C prior to use. A master-mix containing microsome, phosphate buffer, and test compound (9 series) solution was made as follows: (1) 3 μL of microsome (20 mg/mL) was diluted with mixed 30 μL of potassium phosphate buffer (pH 7.4; 10×) and 246 μL of water; (2) 3 μL of 25 μM drug solution was added to the microsome; (3) the master solution was prewarmed at 37 °C for 5 min. NADPH solution A (15 μL) and NADPH solution B (3 μL) from Promega were added to the above-mentioned master solution to initiate the reaction. The final concentration of 9 compounds in the reaction system was 250 nM. An aliquot of 20 μL was pipetted from the reaction solution and stopped by the addition of 180 μL of cold MeCN containing 25 ng of Tamoxifen-(N,N-dimethyl-13C2)-15N as an internal standard at the designated time points (0, 5, 15, 30, 45, and 60 min). The incubation solution was vortexed-mixed (800 rpm/10 min) and centrifuged at 3500 rpm for 10 min to precipitate proteins. The supernatant was collected and used for the LC/MS/MS analysis. The natural log of the remaining percentage of the test compound was plotted against time and the gradient of the line was determined.

[2] = Metabolic stability in human microsomes; type: in vitro ADME; settings: 250 nM compound, NADPH, 37 °C; for microsomal CLint at 1 h, 0.25 µM / half-life at 1 h, 0.25 µM: human, pooled human microsomes, pH 7.4; for half-life at 1 h, 0.25 µM: read-out: metabolic stability in human microsomes T1/2
Procedure: as §1

Log P measurement = type: physicochemical
From the text: An important physicochemical property for a PROTAC molecule is its lipophilicity that largely dictates its pharmaceutical performance such as absorption, permeability, and distribution.

Ba/F3 ROS1-G2032R = test: Antiproliferation assay; type: cell-based, mouse; settings: Ba/F3 cells, cell growth inhibition, 72 h
[3] = Pharmacokinetics study in Sprague–Dawley rats; type: in vivo; settings: rat
[4] = Pharmacokinetics study in Sprague–Dawley rats; type: in vivo; settings: rat; for bioavailability: 10 mg/kg po vs 1 mg/kg iv; for AUC: read-out: AUC (po)
Procedure: Four to 6 weeks old Sprague–Dawley rats [Crl: CD (SD)] (SPF/VAF) were purchased from Charles River (Wilmington MA). Animals were quarantined/acclimated for 2–6 weeks prior to dose initiation. Sprague–Dawley rats were given oral administration of test compounds (20% PG, 5% Solutol, and 75% of 20% HP-β-CD in water) at different dose levels. After treatment with the compounds, whole blood was collected from each study animal by puncture of the tail vein (0.4 mL of whole blood from rats) into tubes containing K2EDTA at each time point. The plasma samples were divided into 2 aliquots (approximately equal in volume) and stored frozen at −75 ± 15 °C within 2 h of the collection until analysis.
The stock solution of the test compound (0.01 M) in DMSO was prepared and stored at −20 ± 5 °C. The desired serial concentrations of working reference analyte solutions were achieved by diluting a stock analyte solution with 50% acetonitrile (0.1% formic acid) in water solution. The bioanalytical LC–MS/MS method was developed for quantitative determination of each test compound in Sprague–Dawley rat plasma with acceptable selectivity, sensitivity, calibration curve, precision, and accuracy. The analytical method is applicable for the determination of test compounds in Sprague–Dawley rat plasma with a lower limit of quantification of 10.0 ng/mL and an upper limit of quantification of 5000 ng/mL. Five microliters of diluted supernatant was injected into the LC–MS/MS system (TSQ Quantis) and a SynergiTM 4 μm Fusion-RP 80 Å (50 × 2 mm) column using gradient elution and a Triple Quad mass spectrometer) for quantitative analysis. The mobile phases used were 0.1% formic acid in deionized water and 0.1% formic acid in acetonitrile. The pharmacokinetic parameters T1/2 (the biological half-life), Cmax (maximal concentration), Tmax (time at which Cmax is observed), and AUC (area under the plasma concentration–time curve) were calculated from the plasma concentration versus time data using WinNonlin (PhoenixTM, version 8.1, Mountain View, CA, USA).

[5] = system: Ba/F3 CD74-ROS1 non mutant; test: Antiproliferation assay (Alamar Blue, 72 h); type: cell-based, mouse; settings: cell growth inhibition
ROS1 = ROS1 degradation in Ba/F3 cells (WES immunoblotting); type: cell-based; settings: for DC50: concentration needed to reduce ROS1 protein by 50%, Ba/F3 cells; for Dmax (%) (ROS1): maximal degradation of ROS1 in Ba/F3 cells
How it was run: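 ROS1 and phospho-ROS1 (Tyr2274/2334) in Ba/F3 lysates quantified by capillary immunoassay (WES) with chemiluminescent detection, duplicate experiments. Levels expressed as AUC of the chemiluminescence peak.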

Ba/F3 ROS1 L2086F = test: Antiproliferation assay; type: cell-based; settings: Mus musculus, BaF3; Ba/F3 cells, cell growth inhibition
From the text: To assess targeted degradation of ROS1 fusion proteins, we first established a mouse pro-B cell line Ba/F3 as a model expressing the CD74-ROS1 oncogene or CD74-ROS1 with clinically observed secondary/tertiary mutations. The Ba/F3 cell line is dependent on interleukin-3 for survival and proliferation. Upon transduction of oncogenic ROS1, Ba/F3 cells become independent of interleukin-3 but dependent on the transduced driver gene. The Ba/F3 models have been effectively employed in the discovery and preclinical development of next generation ROS1 inhibitors.[11],[14],[15] We have tested ROS1 inhibitors against these Ba/F3 cells to validate their sensitivity and resistance to ROS1 inhibition.
Ba/F3 immortalized murine bone marrow–derived pro-B cells were obtained from Creative Biogene (Shirley, NY) and cultured in RPMI supplemented with 10% FBS and IL3 (0.5 ng/mL). Ba/F3 cells expressing ROS1 variants were maintained in RPMI supplemented with 10% FBS and puromycin (0.7 mg/mL). Crizotinib, ceritinib, brigatinib, repotrectinib, and lorlatinib were purchased from MedChem Express. Each compound was dissolved in DMSO and serially diluted in RPMI for cell culture experiments.
(§2) To assess the 72 h effect of drug treatment on cell proliferation, 2000 to 3000 cells were plated in replicates of three in 96-well plates. The plates were placed in an incubator at 37 °C, 5% CO2 for 72 h. Following drug treatments, the cells were incubated with the Alamar Blue Assay reagent (BioRad), 5 μL each well for 4 h at 37 °C and 5% CO2. Luminescence was measured on a multiplate reader and analyzed. […] IC50 values were determined using a nonlinear regression model with a sigmoidal dose response in GraphPad. The data were collected based on triplicate experiments, and presented as mean ± SD.
cDNA encoding CD74-ROS1 or mutant CD74–ROS1 was cloned into retroviral expression vectors (pLenti), and viruses were generated in HEK293T cells by transfecting with packaging plasmids. The resulting virus was used to infect Ba/F3 cells. After retroviral infection, Ba/F3 cells were selected by incubation with puromycin (0.7 mg/mL) for 2 weeks. For Ba/F3 cells infected by the CD74–ROS1 variants, IL3 was withdrawn from the culture medium at least 2 weeks before the experiments.

Ba/F3 ROS1 D2033N = test: Antiproliferation assay; type: cell-based; settings: Mus musculus, BaF3; Ba/F3 cells, cell growth inhibition
From the text: (§3) To assess targeted degradation of ROS1 fusion proteins, we first established a mouse pro-B cell line Ba/F3 as a model expressing the CD74-ROS1 oncogene or CD74-ROS1 with clinically observed secondary/tertiary mutations. The Ba/F3 cell line is dependent on interleukin-3 for survival and proliferation. Upon transduction of oncogenic ROS1, Ba/F3 cells become independent of interleukin-3 but dependent on the transduced driver gene.
(§4) Ba/F3 immortalized murine bone marrow–derived pro-B cells were obtained from Creative Biogene (Shirley, NY) and cultured in RPMI supplemented with 10% FBS and IL3 (0.5 ng/mL). Ba/F3 cells expressing ROS1 variants were maintained in RPMI supplemented with 10% FBS and puromycin (0.7 mg/mL). […] Each compound was dissolved in DMSO and serially diluted in RPMI for cell culture experiments.
as §2
(§5) The resulting virus was used to infect Ba/F3 cells. After retroviral infection, Ba/F3 cells were selected by incubation with puromycin (0.7 mg/mL) for 2 weeks. For Ba/F3 cells infected by the CD74–ROS1 variants, IL3 was withdrawn from the culture medium at least 2 weeks before the experiments.

Ba/F3 ROS1 G2032R-F2075V = test: Antiproliferation assay; type: cell-based; settings: Mus musculus, BaF3; Ba/F3 cells, cell growth inhibition
From the text: as §3, §4, §2, §5

Ba/F3 ROS1 L2026M = test: Antiproliferation assay; type: cell-based; settings: Mus musculus, BaF3; Ba/F3 cells, cell growth inhibition
From the text: as §3, §4, §2, §5

[6] = Sprague-Dawley [Crl: CD (SD)], plasma, 10 mg/kg po
[7] = Sprague-Dawley [Crl: CD (SD)], plasma
[8] = Sprague-Dawley [Crl: CD (SD)], plasma, 10 mg/kg po, read-out: Tmax
[9] = Mus musculus, BaF3, 72 h, Ba/F3 cells

SMILES: COc1cc(N2CCN(CC3CN(c4ccc5c(c4)C(=O)N(C4CCC(=O)NC4=O)C5=O)C3)CC2)ccc1Nc1ncc(Cl)c(Nc2ccccc2P(C)(C)=O)n1 (stereo not shown) [9b, 5-(3-((4-(4-((5-Chloro-4-((2-(dimethylphosphoryl)phenyl)amino)pyrimidin-2-yl)amino)-3-methoxyphenyl)piperazin-1-yl)methyl)azetidin-1-yl)-2-(2,6-dioxopiperidin-3-yl)isoindoline-1,3-dione]
- metabolic stability in rat microsomes Clint [1]: 13.8 µL/min/mg
- metabolic stability in rat microsomes T1/2 [1]: 100.5 min
- metabolic stability in human microsomes Clint [2]: 119.5 µL/min/mg
- metabolic stability in human microsomes T1/2 [2]: 29.0 min
- log P (Log P measurement): 2.84
- IC50 (Ba/F3 ROS1-G2032R): 153 ± 20 nM
- AUC (iv) ([3]; 2 mg/kg iv): 50,451 h·ng/mL
- AUC (po) ([4]; 10 mg/kg po): 41,622 h·ng/mL
- Cmax ([4]; 10 mg/kg po): 4582 ng/mL
- T1/2 ([4]; 10 mg/kg po): 4.11 h
- Tmax ([4]; 10 mg/kg po): 3 h
- % F ([4]; 10 mg/kg po vs 2 mg/kg iv): 16.5%
- IC50 ([5]; Ba/F3 cells): 13 ± 2 nM
- DC50 (ROS1): 10 nM
- Dmax (%) (ROS1) (ROS1): 96%

SMILES: COc1cc(N2CCC(N3CCN(CC4CN(c5ccc6c(c5)C(=O)N(C5CCC(=O)NC5=O)C6=O)C4)CC3)CC2)ccc1Nc1ncc(Cl)c(Nc2ccccc2P(C)(C)=O)n1 (stereo not shown) [9e, 5-(3-((4-(1-(4-((5-Chloro-4-((2-(dimethylphosphoryl)phenyl)amino)pyrimidin-2-yl)amino)-3-methoxyphenyl)piperidin-4-yl)piperazin-1-yl)methyl)azetidin-1-yl)-2-(2,6-dioxopiperidin-3-yl)isoindoline-1,3-dione]
- microsomal CLint at 1 h, 0.25 µM [1]: 12.8 µL/min/mg
- half-life at 1 h, 0.25 µM [1]: 108 min
- microsomal CLint at 1 h, 0.25 µM [2]: 57 µL/min/mg
- half-life at 1 h, 0.25 µM [2]: 60.8 min
- logP (Log P measurement): 2.5
- IC50 (Ba/F3 ROS1-G2032R; Mus musculus, BaF3): 80 ± 27 nM
- AUC (iv) ([3]; 1 mg/kg iv): 20,850 h·ng/mL
- Cmax at 24 h [4, 6]: 3240 ng/mL
- half-life [4, 6]: 462 min
- bioavailability [4, 7]: 12.2%
- AUC [4, 6]: 25400 ng·h/mL
- Tmax [4, 8]: 2 h
- IC50 [5, 9]: 3.8 ± 0.2 nM
- DC50 (ROS1): 5.1 nM
- Dmax (%) (ROS1) (ROS1): 97%

SMILES: COc1cc(N2CCC(N3CCN(CC4CCN(c5ccc6c(c5)C(=O)N(C5CCC(=O)NC5=O)C6=O)CC4)CC3)CC2)ccc1Nc1ncc(Cl)c(Nc2ccccc2P(C)(C)=O)n1 (stereo not shown) [9f, 5-(4-((4-(1-(4-((5-Chloro-4-((2-(dimethylphosphoryl)phenyl)amino)pyrimidin-2-yl)amino)-3-methoxyphenyl)piperidin-4-yl)piperazin-1-yl)methyl)piperidin-1-yl)-2-(2,6-dioxopiperidin-3-yl)isoindoline-1,3-dione]
- microsomal CLint at 1 h, 0.25 µM [1]: 8.8 µL/min/mg
- half-life at 1 h, 0.25 µM [1]: 158 min
- microsomal CLint at 1 h, 0.25 µM [2]: 63.4 µL/min/mg
- half-life at 1 h, 0.25 µM [2]: 55 min
- logP (Log P measurement): 2.88
- IC50 (Ba/F3 ROS1-G2032R; Mus musculus, BaF3): 27 ± 10 nM
- AUC (iv) ([3]; 1 mg/kg iv): 3093 ng·h/mL
- Cmax at 24 h [4, 6]: 284 ng/mL
- half-life [4, 6]: 499 min
- bioavailability [4, 7]: 9.8%
- AUC [4, 6]: 3030 ng·h/mL
- Tmax [4, 8]: 2 h
- IC50 ([5]; Ba/F3 cells): 11 ± 2 nM
- IC50 [5, 9]: 11.2 nM
- DC50 (ROS1): 13 nM
- Dmax (%) (ROS1) (ROS1): 99%

SMILES: CN1CCN(c2ccc(C(=O)Nc3n[nH]c4ccc(Cc5cc(F)cc(F)c5)cc34)c(NC3CCOCC3)c2)CC1 [entrectinib]
- IC50 (Ba/F3 ROS1-G2032R; Mus musculus, BaF3): 980 ± 77 nM
- IC50 (Ba/F3 ROS1 L2086F): 506 ± 97 nM
- IC50 (Ba/F3 ROS1 D2033N): 132 ± 15 nM
- IC50 (Ba/F3 ROS1 G2032R-F2075V): > 2000 nM
- IC50 (Ba/F3 ROS1 L2026M): 56 ± 7 nM
- IC50 ([5]; Mus musculus, BaF3, Ba/F3 cells): 2.4 ± 0.4 nM

Source: paper PMC11513893, “Discovery of Oral Degraders of the ROS1 Fusion Protein with Potent Activity against Secondary Resistance Mutations” (Journal of Medicinal Chemistry, 2024)
